Source: patent US20260091078A1, “OLIGOPEPTIDE THAT INHIBITS ANGIOGENESIS AND VASCULAR FUNCTION” (UNIVERSIDAD NACIONAL AUTONOMA DE MEXICO, priority 2019, published 2026)

How the values were obtained:
[1] = test system: immortalized bovine umbilical-vein endothelial cells (BUVEC E6E7); experiment: Proliferation of BUVEC E6E7 endothelial cells stimulated with VEGF (EdU click assay); type: cell-based; conditions: 100 nM, VEGF 50 ng ml^-1
Method: (§1) On a 96-well plate treated for cell culture, BUVEC E6E7 and HUVEC cells were seeded at a density of ˜14,000 and ˜11,000 cells cm^−2, respectively. BUVEC E6E7 cells were maintained in F12K culture media with 10% (v/v) fetal bovine serum (FBS) and the HUVEC in F12K media supplemented with 20% of FBS, 100 μg ml^−1 heparin and 25 μg ml^−1 of endothelial cell growth supplement (ECGS). After 24 hours, the cells were starved with FBS-reduced media (0.1% of FBS for BUVEC E6E7 and 0.5% for HUVEC) for 16 hours to synchronize cells in phase GO of the reproductive cycle. After this time, FBS and heparin were replenished only to HUVEC. The cells were then treated with vasoinhibin or the oligopeptide THGRGFI in concentrations ranging from 0.001 to 100 nM for 24 hours in the presence of 10 μM of the thymidine analog 5-Ethynyl-2′-deoxyuridine (EdU) and 50 ng ml^−1 VEGF for the BUVEC E6E7 or the combination of 25 ng ml^−1 VEGF and 20 ng ml^−1 bFGF for HUVEC. At the end of the experiment, cells were fixed with 4% paraformaldehyde, permeabilized with 0.5% Triton X-100 in TBS1x, and stained to detect the newly synthetized DNA by the incorporation of EdU using the “click” assay (which involves a copper catalyzed reaction to covalently bind fluorescent azide to the EDU incorporated to DNA). Total DNA was counterstained with Hoechst 33342 and the “click”-stained nuclei were quantified and plotted relative to the total number of Hoechst 33342-stained nuclei.
For the assay, BUVEC E6E7 cells were seeded at a density of ˜14′000 cells cm^−2 in a 96 well plate with F12K with 10% (v/v) FBS. After 24 hours, cells were starved with 0.1% of FBS for GO synchronization for ˜16 hours. Next, the cells were treated with the different oligopeptides in presence of 10 μM of the thymidine analog EdU and 50 ng ml^−1 of VEGF. Finally, the cells were fixed, permeabilized, and stained for the newly synthetized DNA by the EdU incorporation through the ‘click’ assay. The total DNA was stained with Hoechst 33342 and the percentage of ‘click’-stained nuclei over the total nuclei was a measure of proliferation.

[2] = test system: human umbilical-vein endothelial cells (HUVEC); experiment: Proliferation of HUVEC stimulated with VEGF and bFGF (EdU click assay); type: cell-based; conditions: for dose-response effect (biological potency) on proliferation of HUVEC: different doses, 24 hours, VEGF 25 ng ml^-1 and bFGF 20 ng ml^-1
Method: as §1
HUVEC were seeded on a 96 well plate at a density of ˜11,000 cells cm^−2 and maintained in F12K supplemented with 20% of FBS, 100 μg ml^−1 heparin and 25 μg ml^−1 endothelial cell growth supplement (ECGS). After 24 hours, the cells were synchronized in GO with starving conditions (FBS 0.5%) for 16 hours, and after that FBS and the heparin were replenished. Cells were then treated with THGRGFI, the different oligopeptides and 123 amino acids vasoinhibin, each in a concentration of 100 nM, for 24 hours in presence or absence of 10 μM of thymidine analog 5-Ethynyl-2′-deoxyuridine (EdU) and a combination of 25 ng ml^−1 VEGF and 20 ng ml^−1 bFGF. Finally, the cells were fixed with 4% paraformaldehyde, permeabilized with 0.5% of Triton X-100 in TBS1x and stained for the newly synthetized DNA with the ‘click’ method that detects the EdU incorporation. Total DNA was stained with Hoechst 33342 and the percentage of ‘click’-stained nuclei relative to total nuclei (Hoechst 33342-stained) indicated cell proliferation.
Approximately 11,000 HUVEC cells cm^−2 were seeded on a 96 well plate in F12K media with 20% FBS, 100 μg ml^−1 heparin and 25 μg ml^−1 ECGS. After 24 hours, cells were starved with 0.5% of FBS for ˜16 hours, and after that time the FBS and heparin were added again and cells treated with different doses of the alanine substituted oligopeptides for 24 hours, in the presence of EdU and a combination of 25 ng ml^−1 VEGF and 20 ng ml^−1 bFGF. Finally, the cells were fixed, permeabilized and stained to quantify the synthesis of DNA as a sign of proliferation.

Substance | effect on VEGF-induced proliferation of BUVEC E6E7 at single concentration [1] | dose-response effect (biological potency) on proliferation of HUVEC [2] | also measured
GFITKAI (Amino acids 49 to 55 of human prolactin; listed as Homo sapiens) | did not shown any activity | – | –
GRGFITK (Amino acids 47 to 53 of human prolactin; listed as Homo sapiens) | significatively inhibited the VEGF-induced proliferation of endothelial cells | – | –
His Gly Arg [HGR] | – | very similar to the oligopeptide THGRGFI | –
R4A: THGRGFI with the arginine at position X4 substituted by alanine (THGAGFI) | – | did not inhibit endothelial proliferation | –
THIRGGF (scrambled sequence of SEQ ID NO 1) [Scr2, reference compound] | – | – | effect on proliferation of HUVEC at single concentration ([2]; 100 nM, VEGF 25 ng ml^-1 and bFGF 20 ng ml^-1, 24 hours): did not have any effect
TKAINSC (Amino acids 52 to 58 of human prolactin; listed as Homo sapiens) | did not shown any activity | – | –
Thr His Gly Arg (THGR; Amino acids 45 to 48 of human prolactin; listed as Homo sapiens) | – | very similar to the oligopeptide THGRGFI | –
